Laboratory results reported in patent US10335365B2, “Bladder cancer specific ligand peptides” (The Regents of the University of California, priority 2009, dated 2019).
Positions of bridges follow the written chain, without caps; N, C: chain ends. Non-standard residues stand in square brackets, D forms with d. No end group written: not given here.

System: K9TCC cells
Assay: Whole cell binding assay of Example 2, canine TCC cells
Conditions: PLZ4 beads, 10^6 cells/ml
Protocol: This experiment was repeated 3 times for cell lines. […] 5637 human bladder cancer cell line; b. […] The average diameter of the beads is 90 μm. […] This experiment was repeated for 3 times. (200×)
To determine the binding of PLZ4 to canine TCC cell lines, whole cell binding assay was performed. PLZ4 was synthesized on TentaGel S NH2 resin beads (Rapp Polymere Gmbh, Germany) (Pegram, et al., J Clin Oncol (1998) 16:2659-2671), and incubated with single suspensions of five different canine carcinoma cell lines including K9TCC-PU, K9TCC-PU-AxA, K9TCC-PU-In, K9TCC-PU-AxC, and K9TCC-PU-Nk (kindly provided by Deborah Knapp at Purdue University, West Lafayette, Ind., USA) at 10^6 cells/ml. The negative control was normal urothelial cells obtained from dogs that were euthanized due to non-bladder-related disorders. Human bladder cancer cell line, 5637 were served as the positive control. If PLZ4 bound to cells in suspension, then the bead surface was covered with cells. Over 95% of the bead surface was covered with 5637 and K9TCC cells (FIG. 7A-a and b, respectively).

For “cQDGRMGFc ([dC]QDGRMGF[dC]; disulfide 1-9 (inferred)) [PLZ4, bladder cancer-specific ligand peptide]”, the “bead surface covered with cells” value was “Over 95%”.
